Test results from ChEMBL document CHEMBL4414548 (J Med Chem, 2019).

Legend:
[1] = Metabolic stability in human liver microsomes assessed as parent compound remaining after 10 mins; type: ADME, Microsome; settings: read-out: Stability
[2] = Half life in mouse liver microsomes; type: ADME, Microsome
[3] = Cmax in Balb/c mouse assessed as 6-((5-Fluoropyridin-2-yl)amino)-4-((2-(methylsulfonyl)phenyl)amino)nicotinamide level at 3 mg/kg, iv after 1 hr; type: ADME, organism-based; parameters: dose 3 mg/kg, route intravenous; settings: in vivo
[4] = Unbound drug level in rabbit at 1 to 10 mg/kg, iv; type: ADME, organism-based, Oryctolagus cuniculus; settings: in vivo
[5] = Cmax in Balb/c mouse assessed as 6-((5-Fluoropyridin-2-yl)amino)-4-((2-(methylsulfonyl)phenyl)amino)nicotinamide level at 3 mg/kg, iv after 5 hrs; type: ADME, organism-based; parameters: dose 3 mg/kg, route intravenous; settings: in vivo
[6] = Drug concentration in Balb/c mouse at 3 mg/kg, iv after 5 hrs; type: ADME, organism-based; settings: in vivo, read-out: Drug uptake
[7] = AUClast in Balb/c mouse at 10 mg/kg, po; type: ADME, organism-based; parameters: dose 10 mg/kg, time 0 - last, route oral; settings: in vivo
[8] = Cmax in Balb/c mouse assessed as 6-((5-Fluoropyridin-2-yl)amino)-4-((2-(methylsulfonyl)phenyl)amino)nicotinamide level at 3 mg/kg, iv after 0.05 hrs; type: ADME, organism-based; parameters: dose 3 mg/kg, route intravenous; settings: in vivo
[9] = Cmax in Balb/c mouse assessed as 6-((5-Fluoropyridin-2-yl)amino)-4-((2-(methylsulfonyl)phenyl)amino)nicotinamide level at 10 mg/kg, po after 0.05 hrs; type: ADME, organism-based; parameters: dose 10 mg/kg, route oral; settings: in vivo
[10] = Clearance in Balb/c mouse at 3 mg/kg, iv; type: ADME, organism-based; settings: in vivo
[11] = Cmax in Balb/c mouse assessed as 6-((5-Fluoropyridin-2-yl)amino)-4-((2-(methylsulfonyl)phenyl)amino)nicotinamide level at 10 mg/kg, po after 3 hrs; type: ADME, organism-based; parameters: dose 10 mg/kg, route oral; settings: in vivo
[12] = AUClast in Balb/c mouse at 3 mg/kg, iv; type: ADME, organism-based; parameters: dose 3 mg/kg, route intravenous, time 0 - last; settings: in vivo
[13] = molecular target: Tyrosine-protein kinase JAK1 (Homo sapiens, UniProt P23458); test: Inhibition of JAK1 JH1 domain (unknown origin)
Chain of Tyrosine-protein kinase JAK1 (P23458 whole entry, the tested form may be a part): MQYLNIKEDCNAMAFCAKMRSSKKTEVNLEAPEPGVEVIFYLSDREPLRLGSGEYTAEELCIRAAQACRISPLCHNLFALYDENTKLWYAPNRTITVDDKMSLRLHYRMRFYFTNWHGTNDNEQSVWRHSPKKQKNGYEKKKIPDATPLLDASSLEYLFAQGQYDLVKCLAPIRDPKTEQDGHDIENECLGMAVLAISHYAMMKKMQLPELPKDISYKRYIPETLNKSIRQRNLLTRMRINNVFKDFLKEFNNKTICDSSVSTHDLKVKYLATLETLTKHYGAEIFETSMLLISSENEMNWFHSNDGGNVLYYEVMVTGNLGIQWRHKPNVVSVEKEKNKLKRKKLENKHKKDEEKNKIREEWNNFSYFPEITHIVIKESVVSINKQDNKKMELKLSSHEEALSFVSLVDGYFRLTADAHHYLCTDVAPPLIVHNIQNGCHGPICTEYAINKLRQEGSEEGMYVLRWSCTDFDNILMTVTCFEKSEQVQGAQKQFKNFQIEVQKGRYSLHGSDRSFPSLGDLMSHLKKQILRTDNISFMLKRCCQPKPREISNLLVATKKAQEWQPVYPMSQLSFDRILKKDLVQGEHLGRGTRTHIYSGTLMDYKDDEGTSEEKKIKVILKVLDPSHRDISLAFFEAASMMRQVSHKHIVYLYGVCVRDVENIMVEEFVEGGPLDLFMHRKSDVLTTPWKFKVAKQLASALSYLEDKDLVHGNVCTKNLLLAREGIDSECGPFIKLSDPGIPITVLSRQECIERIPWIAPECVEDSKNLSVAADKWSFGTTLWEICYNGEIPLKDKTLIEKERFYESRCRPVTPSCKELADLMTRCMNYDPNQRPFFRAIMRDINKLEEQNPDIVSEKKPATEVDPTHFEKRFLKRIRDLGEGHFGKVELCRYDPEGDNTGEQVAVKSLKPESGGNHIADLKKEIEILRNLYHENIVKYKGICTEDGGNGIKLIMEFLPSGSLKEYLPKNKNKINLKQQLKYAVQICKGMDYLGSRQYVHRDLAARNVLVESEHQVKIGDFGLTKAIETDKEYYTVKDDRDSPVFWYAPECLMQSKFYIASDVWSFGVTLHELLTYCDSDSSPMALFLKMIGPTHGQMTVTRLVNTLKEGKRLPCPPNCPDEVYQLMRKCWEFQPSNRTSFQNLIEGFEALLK

[14] = Efflux ratio of permeability in human Caco2; type: ADME, cell-based; settings: Caco-2
[15] = molecular target: T1, Non-receptor tyrosine-protein kinase TYK2 (Homo sapiens, UniProt P29597); test: Inhibition of TYK2 JH1 domain (unknown origin)
T1 sequence (P29597 whole entry, the tested form may be a part): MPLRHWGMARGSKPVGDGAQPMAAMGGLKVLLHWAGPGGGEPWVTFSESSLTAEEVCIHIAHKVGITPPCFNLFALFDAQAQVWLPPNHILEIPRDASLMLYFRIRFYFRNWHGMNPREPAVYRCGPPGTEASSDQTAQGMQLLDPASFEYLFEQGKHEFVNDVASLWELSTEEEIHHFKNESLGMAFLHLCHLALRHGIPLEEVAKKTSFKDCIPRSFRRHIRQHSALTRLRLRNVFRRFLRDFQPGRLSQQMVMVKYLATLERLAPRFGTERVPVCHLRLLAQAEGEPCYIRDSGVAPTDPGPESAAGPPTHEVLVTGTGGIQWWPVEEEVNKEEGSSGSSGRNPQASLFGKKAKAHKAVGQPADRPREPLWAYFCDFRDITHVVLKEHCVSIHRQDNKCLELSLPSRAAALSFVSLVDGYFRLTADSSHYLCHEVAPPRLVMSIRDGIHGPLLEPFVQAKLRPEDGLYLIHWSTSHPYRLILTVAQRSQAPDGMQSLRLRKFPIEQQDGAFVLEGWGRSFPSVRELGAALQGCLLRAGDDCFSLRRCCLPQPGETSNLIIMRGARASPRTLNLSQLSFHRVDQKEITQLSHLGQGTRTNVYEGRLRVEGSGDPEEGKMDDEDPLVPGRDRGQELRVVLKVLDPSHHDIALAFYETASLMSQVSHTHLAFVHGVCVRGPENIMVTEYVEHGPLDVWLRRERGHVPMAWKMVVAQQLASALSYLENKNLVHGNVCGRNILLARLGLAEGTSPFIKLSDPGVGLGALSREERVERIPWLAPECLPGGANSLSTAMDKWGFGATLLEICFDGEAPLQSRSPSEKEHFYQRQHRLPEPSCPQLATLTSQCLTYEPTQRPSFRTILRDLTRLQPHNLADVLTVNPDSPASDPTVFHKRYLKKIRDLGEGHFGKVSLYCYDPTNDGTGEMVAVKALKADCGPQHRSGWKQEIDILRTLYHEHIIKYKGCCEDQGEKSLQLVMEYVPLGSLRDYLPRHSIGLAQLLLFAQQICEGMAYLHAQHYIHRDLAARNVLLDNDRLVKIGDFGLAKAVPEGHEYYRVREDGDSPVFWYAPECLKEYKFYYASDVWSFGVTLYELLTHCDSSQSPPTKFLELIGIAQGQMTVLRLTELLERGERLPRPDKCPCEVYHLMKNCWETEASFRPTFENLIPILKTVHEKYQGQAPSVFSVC

[16] = Cmax in Balb/c mouse assessed as 6-((5-Fluoropyridin-2-yl)amino)-4-((2-(methylsulfonyl)phenyl)amino)nicotinamide level at 10 mg/kg, po after 0.5 hrs; type: ADME, organism-based; parameters: dose 10 mg/kg, route oral; settings: in vivo
[17] = Metabolic stability in rat liver microsomes assessed as parent compound remaining after 10 mins; type: ADME, Microsome; settings: read-out: Stability
[18] = Drug concentration in Balb/c mouse at 3 mg/kg, iv after 1 hr; type: ADME, organism-based; settings: in vivo, read-out: Drug uptake
[19] = molecular target: T1, Non-receptor tyrosine-protein kinase TYK2; test: Inhibition of fluorescein-labeled kinase tracer binding to His-TVMV-fused TYK2 JH2 domain (575 to 869 residues) (unknown origin) measured after 90 mins by HTRF assay
[20] = Drug concentration in Balb/c mouse at 10 mg/kg, po after 7 hrs; type: ADME, organism-based; settings: in vivo, read-out: Drug uptake
[21] = Cmax in anesthetized rabbit at 1 to 10 mg/kg, iv; type: ADME, organism-based, Oryctolagus cuniculus; settings: in vivo
[22] = Cmax in Balb/c mouse assessed as 6-((5-Fluoropyridin-2-yl)amino)-4-((2-(methylsulfonyl)phenyl)amino)nicotinamide level at 10 mg/kg, po after 7 hrs; type: ADME, organism-based; parameters: dose 10 mg/kg, route oral; settings: in vivo
[23] = Half life in Balb/c mouse at 3 mg/kg, iv; type: ADME, organism-based; settings: in vivo
[24] = Drug concentration in Balb/c mouse at 10 mg/kg, po after 0.05 hrs; type: ADME, organism-based; settings: in vivo, read-out: Drug uptake
[25] = molecular target: T1, Non-receptor tyrosine-protein kinase TYK2; test: Inhibition of TYK2 JH2 domain in human whole blood assessed as inhibition of IFNalpha-induced STAT5 phosphorylation preincubated for 1 hr followed by IFNalpha stimulation and measured after 15 mins by fluorescence assay; type: tissue-based
[26] = Drug concentration in Balb/c mouse at 3 mg/kg, iv after 3 hrs; type: ADME, organism-based; settings: in vivo, read-out: Drug uptake
[27] = Drug concentration in Balb/c mouse at 10 mg/kg, po after 5 hrs; type: ADME, organism-based; settings: in vivo, read-out: Drug uptake
[28] = Cmax in Balb/c mouse assessed as 6-((5-Fluoropyridin-2-yl)amino)-4-((2-(methylsulfonyl)phenyl)amino)nicotinamide level at 10 mg/kg, po after 1 hr; type: ADME, organism-based; parameters: dose 10 mg/kg, route oral; settings: in vivo
[29] = Drug concentration in Balb/c mouse at 10 mg/kg, po after 3 hrs; type: ADME, organism-based; settings: in vivo, read-out: Drug uptake
[30] = Cmax in mouse at 10 mg/kg, po after 7 hrs; type: ADME, organism-based; parameters: dose 10 mg/kg, route oral; settings: in vivo
[31] = Drug concentration in Balb/c mouse at 10 mg/kg, po after 1 hr; type: ADME, organism-based; settings: in vivo, read-out: Drug uptake
[32] = molecular target: JAK1/TYK2 (Homo sapiens, UniProt P23458+P29597); test: Inhibition of TYK2/JAK1 in IFNalpha-stimulated human Kit225 cells by steady-glo luciferase assay
Chain of JAK1/TYK2 (P23458 whole entry): as the sequence (P23458 whole entry, the tested form may be a part) above
Chain of JAK1/TYK2 (P29597 whole entry): as the sequence (P29597 whole entry, the tested form may be a part) above

[33] = Half life in cynomolgus monkey liver microsomes; type: ADME, Macaca fascicularis, Microsome
[34] = Half life in rat liver microsomes; type: ADME, Microsome
[35] = Cmax in Balb/c mouse assessed as 6-((5-Fluoropyridin-2-yl)amino)-4-((2-(methylsulfonyl)phenyl)amino)nicotinamide level at 3 mg/kg, iv after 7 hrs; type: ADME, organism-based; parameters: dose 3 mg/kg, route intravenous; settings: in vivo
[36] = molecular target: JAK3/JAK1 (Homo sapiens, UniProt P23458+P52333); test: Inhibition of JAK1/JAK3 (unknown origin) in IL-2 stimulated cells by cell based assay
Chain of JAK3/JAK1 (P52333 whole entry, the tested form may be a part): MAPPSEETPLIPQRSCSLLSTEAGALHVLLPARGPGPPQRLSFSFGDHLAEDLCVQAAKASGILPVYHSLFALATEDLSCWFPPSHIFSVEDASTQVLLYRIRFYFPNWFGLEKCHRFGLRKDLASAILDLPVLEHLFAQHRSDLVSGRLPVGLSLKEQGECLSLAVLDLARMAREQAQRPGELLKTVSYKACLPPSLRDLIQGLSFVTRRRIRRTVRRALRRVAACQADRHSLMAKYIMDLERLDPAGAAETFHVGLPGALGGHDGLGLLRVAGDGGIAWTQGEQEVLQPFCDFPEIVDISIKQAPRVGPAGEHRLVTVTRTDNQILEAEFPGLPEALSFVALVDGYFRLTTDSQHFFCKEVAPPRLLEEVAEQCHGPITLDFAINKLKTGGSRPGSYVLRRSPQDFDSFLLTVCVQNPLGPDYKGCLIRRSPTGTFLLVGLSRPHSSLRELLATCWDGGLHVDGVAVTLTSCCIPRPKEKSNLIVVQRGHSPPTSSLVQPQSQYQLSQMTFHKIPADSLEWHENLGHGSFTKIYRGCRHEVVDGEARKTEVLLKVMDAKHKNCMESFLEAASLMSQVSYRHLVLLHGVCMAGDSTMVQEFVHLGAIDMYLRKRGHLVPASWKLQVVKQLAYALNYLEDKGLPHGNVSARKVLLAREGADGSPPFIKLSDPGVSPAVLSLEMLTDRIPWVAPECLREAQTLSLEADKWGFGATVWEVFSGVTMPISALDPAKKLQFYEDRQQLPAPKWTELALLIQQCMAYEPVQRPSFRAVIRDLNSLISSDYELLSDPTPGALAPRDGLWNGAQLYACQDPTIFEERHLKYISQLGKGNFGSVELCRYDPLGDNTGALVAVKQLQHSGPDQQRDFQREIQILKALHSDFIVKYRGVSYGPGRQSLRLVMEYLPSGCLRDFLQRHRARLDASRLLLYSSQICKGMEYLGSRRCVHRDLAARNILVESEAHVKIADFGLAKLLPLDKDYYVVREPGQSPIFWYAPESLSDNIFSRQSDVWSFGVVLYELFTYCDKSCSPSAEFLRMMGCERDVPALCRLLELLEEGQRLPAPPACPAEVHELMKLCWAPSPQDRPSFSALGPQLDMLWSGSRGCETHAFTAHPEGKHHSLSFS
Chain of JAK3/JAK1 (P23458 whole entry, the tested form may be a part): as the sequence (P23458 whole entry, the tested form may be a part) above

[37] = molecular target: Tyrosine-protein kinase JAK2 (Homo sapiens, UniProt O60674); test: Inhibition of JAK2 JH1 domain (unknown origin)
Chain of Tyrosine-protein kinase JAK2 (O60674 whole entry, the tested form may be a part): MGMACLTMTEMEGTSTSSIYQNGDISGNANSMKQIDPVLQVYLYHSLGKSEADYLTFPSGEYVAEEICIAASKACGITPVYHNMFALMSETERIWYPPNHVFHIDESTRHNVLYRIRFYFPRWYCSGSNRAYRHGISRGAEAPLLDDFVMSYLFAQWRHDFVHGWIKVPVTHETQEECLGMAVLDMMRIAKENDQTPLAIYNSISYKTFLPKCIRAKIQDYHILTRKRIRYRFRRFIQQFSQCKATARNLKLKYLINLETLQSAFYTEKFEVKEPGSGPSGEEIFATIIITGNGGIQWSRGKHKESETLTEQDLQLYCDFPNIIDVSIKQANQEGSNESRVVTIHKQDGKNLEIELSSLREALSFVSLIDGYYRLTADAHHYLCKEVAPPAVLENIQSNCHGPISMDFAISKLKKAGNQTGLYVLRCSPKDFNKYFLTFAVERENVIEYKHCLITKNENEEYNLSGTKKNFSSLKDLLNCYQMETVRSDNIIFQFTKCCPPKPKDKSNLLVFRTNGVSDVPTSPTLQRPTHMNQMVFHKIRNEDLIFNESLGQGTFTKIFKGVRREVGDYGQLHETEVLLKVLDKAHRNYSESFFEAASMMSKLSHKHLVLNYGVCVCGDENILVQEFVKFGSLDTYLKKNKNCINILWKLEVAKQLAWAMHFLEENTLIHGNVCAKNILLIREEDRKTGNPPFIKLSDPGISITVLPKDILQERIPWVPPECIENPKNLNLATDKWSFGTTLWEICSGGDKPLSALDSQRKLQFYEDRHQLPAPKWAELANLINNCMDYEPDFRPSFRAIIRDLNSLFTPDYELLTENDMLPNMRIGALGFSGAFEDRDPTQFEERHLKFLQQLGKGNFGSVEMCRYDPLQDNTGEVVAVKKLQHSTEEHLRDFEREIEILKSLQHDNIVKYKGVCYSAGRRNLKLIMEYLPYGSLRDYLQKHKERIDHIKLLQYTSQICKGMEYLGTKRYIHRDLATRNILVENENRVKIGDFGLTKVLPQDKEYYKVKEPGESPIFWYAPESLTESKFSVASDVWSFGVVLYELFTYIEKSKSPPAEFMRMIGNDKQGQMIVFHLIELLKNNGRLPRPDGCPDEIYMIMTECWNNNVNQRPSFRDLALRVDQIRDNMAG

[38] = Cmax in Balb/c mouse assessed as 6-((5-Fluoropyridin-2-yl)amino)-4-((2-(methylsulfonyl)phenyl)amino)nicotinamide level at 10 mg/kg, po after 5 hrs; type: ADME, organism-based; parameters: dose 10 mg/kg, route oral; settings: in vivo
[39] = Half life in human liver microsomes; type: ADME, Microsome
[40] = Drug concentration in Balb/c mouse at 3 mg/kg, iv after 0.05 hrs; type: ADME, organism-based; settings: in vivo, read-out: Drug uptake
[41] = Drug concentration in Balb/c mouse at 3 mg/kg, iv after 0.5 hrs; type: ADME, organism-based; settings: in vivo, read-out: Drug uptake
[42] = Volume of distribution at steady state in Balb/c mouse at 3 mg/kg, iv; type: ADME, organism-based; settings: in vivo, read-out: Vdss
[43] = Drug concentration in Balb/c mouse at 10 mg/kg, po after 0.5 hrs; type: ADME, organism-based; settings: in vivo, read-out: Drug uptake
[44] = molecular target: JAK2/TYK2 (Homo sapiens, UniProt O60674+P29597); test: Inhibition of TYK2/JAK2 in IL23-stimulated human Kit225 cells by steady-glo luciferase assay
Chain of JAK2/TYK2 (O60674 whole entry): as the sequence (O60674 whole entry, the tested form may be a part) above
Chain of JAK2/TYK2 (P29597 whole entry): as the sequence (P29597 whole entry, the tested form may be a part) above

[45] = Drug concentration in Balb/c mouse at 3 mg/kg, iv after 7 hrs; type: ADME, organism-based; settings: in vivo, read-out: Drug uptake
[46] = Cmax in Balb/c mouse assessed as 6-((5-Fluoropyridin-2-yl)amino)-4-((2-(methylsulfonyl)phenyl)amino)nicotinamide level at 3 mg/kg, iv after 0.5 hrs; type: ADME, organism-based; parameters: dose 3 mg/kg, route intravenous; settings: in vivo
[47] = AUClast in mouse at 10 mg/kg, po after 7 hrs; type: ADME, organism-based; parameters: time < 7 hr, dose 10 mg/kg, route oral; settings: in vivo
[48] = Cmax in Balb/c mouse assessed as 6-((5-Fluoropyridin-2-yl)amino)-4-((2-(methylsulfonyl)phenyl)amino)nicotinamide level at 3 mg/kg, iv after 3 hrs; type: ADME, organism-based; parameters: dose 3 mg/kg, route intravenous; settings: in vivo
[49] = Permeability across apical to basolateral side in human Caco2 cells; type: ADME, cell-based; settings: Caco-2, read-out: permeability
[50] = molecular target: JAK2/JAK1 (Homo sapiens, UniProt O60674+P23458); test: Inhibition of JAK1/JAK2 (unknown origin) in GM-CSF stimulated cells by cell based assay
Chain of JAK2/JAK1 (P23458 whole entry): as the sequence (P23458 whole entry, the tested form may be a part) above
Chain of JAK2/JAK1 (O60674 whole entry): as the sequence (O60674 whole entry, the tested form may be a part) above

[51] = Half life in dog liver microsomes; type: ADME, Canis lupus familiaris, Microsome
[52] = molecular target: Non-receptor tyrosine-protein kinase TYK2 (Mus musculus, UniProt Q9R117); test: Inhibition of TYK2 JH2 domain in mouse whole blood assessed as inhibition of IFNalpha-induced STAT1 phosphorylation preincubated for 1 hr followed by IFNalpha stimulation and measured after 15 mins by fluorescence assay; type: tissue-based
[53] = Metabolic stability in mouse liver microsomes assessed as parent compound remaining after 10 mins; type: ADME, Microsome; settings: read-out: Stability

SMILES: [2H]C([2H])([2H])NC(=O)c1cnc(Nc2ccc(F)cn2)cc1Nc1ccccc1S(C)(=O)=O
- remaining at 10 min [1]: 85%
- half-life [2]: 35 min
- Cmax [3]: 4.9 nM
- fraction unbound [4]: 0.13
- Cmax [5]: 4.9 nM
- concentration at 5 h [6]: 270 nM
- AUC(0-t) [7]: 7.8 µM·h
- Cmax [8]: 4.9 nM
- Cmax [9]: 4.9 nM
- clearance [10]: 25 mL/min/kg
- Cmax [11]: 4.9 nM
- AUC(0-t) [12]: 5 µM·h
- IC50 [13]: > 2 µM
- efflux ratio [14]: 9.3
- IC50 [15]: > 50 µM
- Cmax [16]: 4.9 nM
- remaining at 10 min [17]: 91%
- concentration at 1 h [18]: 1500 nM
- IC50 [19]: 0.00049 µM
- concentration at 7 h [20]: 260 nM
- Cmax [21]: 20200 nM
- Cmax [22]: 4.9 nM
- half-life [23]: 72 min
- concentration at 0.05 h [24]: 750 nM
- IC50 [25]: 0.16 µM
- concentration at 3 h [26]: 470 nM
- concentration at 5 h [27]: 1300 nM
- Cmax [28]: 4.9 nM
- concentration at 3 h [29]: 1300 nM
- Cmax [30]: 1440 nM
- concentration at 1 h [31]: 1400 nM
- IC50 [32]: 0.053 µM
- half-life [33]: 6 min
- half-life [34]: 44 min
- Cmax [35]: 4.9 nM
- IC50 [36]: > 12.5 µM
- IC50 [37]: > 50 µM
- Cmax [38]: 4.9 nM
- half-life [39]: 69 min
- concentration at 0.05 h [40]: 2800 nM
- concentration at 0.5 h [41]: 2400 nM
- Vd [42]: 2.7 L/kg
- concentration at 0.5 h [43]: 1400 nM
- IC50 [44]: 0.11 µM
- concentration at 7 h [45]: 47 nM
- Cmax [46]: 4.9 nM
- AUC(0-t) at 7 h [47]: 7.83 µM·h
- Cmax [48]: 4.9 nM
- Papp A→B [49]: 5.8 ×10⁻⁶ cm/s
- IC50 [50]: > 12.5 µM
- half-life [51]: 16 min
- IC50 [52]: 0.6 µM
- remaining at 10 min [53]: 81%
